According to patent publication US20060057236A1, “Process for producing an extract of ivy leaves” (priority 2003, published 2006):

Columns and labels:
β-adrenergic receptors = test: inhibition of internalization of β-adrenergic receptors (receptor/ligand complex) into the cell; assay type: cell-based; conditions: studies carried out by the applicant; result in words
β-adrenergic receptor = test: direct action on the β-adrenergic receptor; conditions: studies carried out by the applicant; result in words

C[C@@H]1O[C@@H](O[C@H]2[C@H](O[C@H]3CC[C@@]4(C)[C@@H](CC[C@]5(C)[C@@H]4CC=C4[C@@H]6CC(C)(C)CC[C@]6(C(=O)O[C@@H]6O[C@H](CO[C@@H]7O[C@H](CO)[C@@H](O[C@@H]8O[C@@H](C)[C@H](O)[C@@H](O)[C@H]8O)[C@H](O)[C@H]7O)[C@@H](O)[C@H](O)[C@H]6O)CC[C@]45C)[C@]3(C)CO)OC[C@H](O)[C@@H]2O)[C@H](O)[C@H](O)[C@H]1O [hederacoside C]
inhibition of the process of internalizing β-adrenergic receptors (β-adrenergic receptors): unable to inhibit the process of internalization

CC1(C)CC[C@]2(C(=O)O)CC[C@]3(C)C(=CC[C@@H]4[C@@]5(C)CC[C@H](O)[C@@](C)(CO)[C@@H]5CC[C@]43C)[C@@H]2C1 [hederagenin]
inhibition of the process of internalizing β-adrenergic receptors (β-adrenergic receptors): unable to inhibit the process of internalization

C[C@@H]1O[C@@H](O[C@H]2[C@H](O[C@H]3CC[C@@]4(C)[C@@H](CC[C@]5(C)[C@@H]4CC=C4[C@@H]6CC(C)(C)CC[C@]6(C(=O)O)CC[C@]45C)[C@]3(C)CO)OC[C@H](O)[C@@H]2O)[C@H](O)[C@H](O)[C@H]1O [α-hederin]
inhibition of the process of internalizing β-adrenergic receptors (β-adrenergic receptors): inhibits the process of internalizing β-adrenergic receptors in a specific manner
direct attack on the β-adrenergic receptor (β-adrenergic receptor): does not attack the β-adrenergic receptor directly
